Reference: patent publication US5932742A, “Arylsulfonylimidazolone derivatives as an antitumor agent” (priority 1996, dated 1999)
In brackets after ≈: the same amount, converted by molar mass. Structures can show the parent of a compound that is named as a salt. Where two headings read alike, the source gives them in different places.

Columns and labels:
Type in all cases: cell-based
[1] = system: Colo205 (ATCC CCL 222): human colon adenocarcinoma; test: In vitro antitumor activity, MTT assay, Colo205; conditions: Homo sapiens
Experimental: (§1) In vitro antitumor activity against human tumor cell lines
(§2) In vitro antitumor activity of the compounds according to the present invention was determined by MTT assay method against the following human tumor cell lines:
Colo205 (ATCC CCL 222): human colon adenocarcinoma
(§3) In this test, the known antineoplastic compounds, Doxorubicin and Sulofenur, were used as the comparative agents.
(§4) Each of the tumor cells was cultured in RPMI 1640 media containing 10% fetal bovine serum, 100 IU/ml penicillin and 100 μg/ml streptomycin, and then periodically subcultured once or twice per week in trypsin-EDTA solution containing 0.05% trypsin and 0.53mM EDTA.4Na. The human tumor cell line thus obtained (10,000cells/100 μl) was plated on 96-well microplate and then cultured for 24 hrs at 37° C. in a 5% CO2 incubator. Test compound was dissolved in DMSO, sterilized with 0.22 μm PVDF filter, and then serially 5-fold diluted from 40 μg/ml to 0.00256μg/ml. 100 μl of the sample solution thus prepared and RPMI 1640 medium only (control group) were added to 96-well microplate containing the human tumor cell, respectively. The final concentration of the test compound was in the range from 20 μg/ml to 0.00128 μg/ml and the concentration of DMSO was below 0.5%. The cells were cultured for 48 hrs at 37° C. in a 5% CO2 incubator. MTT(3-(4,5-Dimethylthiazole-2-yl)-e,5-diphenyltetrazoliumbromide) was dissolved in physiological saline in a concentration of 2 mg/ml and the resulting solution was filtered through 0.22 μm PTFE filter. 25 μl of MTT solution thus prepared was added to each well of 96-well microplate and incubated for additional 4 hrs at 37° C. in a 5% CO2 incubator. Then, the content of microplate was centrifuged at 1000 rpm for 10 min, and supernatant was removed by flicking. The formazan formed from MTT by mitochondrial succinate dehydrogenase was dissolved in 100 μl of DMSO. The absorbance of each well was measured at 540nm by micro ELISA reader and the cytotoxicity was calculated by dividing the absorbance of test group by the absorbance of control group. After the calculated cytotoxicity (%) was plotted, the concentration of 50% tumor growth inhibition concentration (IC50) was estimated by Linear-Regression method.

[2] = system: SK-OV-3 (ATCC HTB 77): human ovarian adenocarcinoma; test: In vitro antitumor activity, MTT assay, SK-OV-3; conditions: Homo sapiens
Experimental: as §1, §2
SK-OV-3 (ATCC HTB 77): human ovarian adenocarcinoma
as §3, §4

[3] = system: K562 (ATCC CCL 243): human chronic myelogenous leukemia; test: In vitro antitumor activity, MTT assay, K562; conditions: Homo sapiens, K562, 48 h
Experimental: as §1, §2
K562 (ATCC CCL 243): human chronic myelogenous leukemia
as §3, §4

[4] = system: A549 (ATCC CCL 185): human lung carcinoma; test: In vitro antitumor activity, MTT assay, A549; conditions: Homo sapiens, A549, 48 h
Experimental: as §1, §2
A549 (ATCC CCL 185): human lung carcinoma
as §3, §4

[5] = COLO 205, Table 1, 48 hrs, read-out: IC50 (Colo205)
[6] = COLO 205, Table 3, 48 hrs, read-out: IC50 (Col205)

Row | IC50 ([2]; SK-OV-3, Table 4, 48 hrs) [µg/mL] | IC50 ([3]; Table 4, read-out: IC50 (K562)) [µg/mL] | IC50 ([4]; Table 4) [µg/mL] | Compound | further results
1 | – | – | – | NCC(=O)Nc1ccc(C(=O)N2CCc3cc(S(=O)(=O)N4C[C@H](c5ccccc5)NC4=O)ccc32)cc1 [Example 67, (S)-(+)-4-phenyl-1-[N-{4-(2-aminoacetyl)aminobenzoyl}indoline-5-sulfonyl]-4,5-dihydro-2-imidazolone.HCl] | IC50 ([1]; COLO 205, Table 5, 48 hrs, read-out: IC50 (Colo205)): 0.971 µg/mL; IC50 ([2]; SK-OV-3, Table 5, 48 hrs): 0.855 µg/mL; IC50 ([3]; Table 5, read-out: IC50 (K562)): 1.32 µg/mL; IC50 ([4]; Table 5): 0.254 µg/mL
2 | 11.8 (≈ 22.8 µM) | 1.37 (≈ 2.65 µM) | 2.18 (≈ 4.24 µM) | O=C(c1cccc(C(F)(F)F)c1)N1CCc2cc(S(=O)(=O)N3CC(c4ccccc4)NC3=O)ccc21 (stereo not drawn) [Example 62, 4-phenyl-1-[N-(3-trifluoromethylbenzoyl)indoline-5-sulfonyl]-4,5-dihydro-2-imidazolone] | –
3 | – | – | – | CCCNC(=O)N1CCc2cc(S(=O)(=O)n3cc(-c4ccccc4)[nH]c3=O)ccc21 [Example 4, 4-phenyl-1-(N-propylcarbamoylindoline-5-sulfonyl)-2-imidazolone] | IC50 [1, 5]: < 0.00128 µg/mL; IC50 ([2]; SK-OV-3, Table 1, 48 hrs): < 0.00128 µg/mL; IC50 ([4]; Table 1): 0.052 µg/mL (≈ 0.122 µM)
4 | – | – | – | CC(C)NC(=O)N1CCc2cc(S(=O)(=O)n3cc(-c4ccccc4)[nH]c3=O)ccc21 [Example 6, 4-phenyl-1-(N-isopropylcarbamoylindoline-5-sulfonyl)-2-imidazolone] | IC50 [1, 5]: < 0.00128 µg/mL; IC50 ([2]; SK-OV-3, Table 1, 48 hrs): < 0.00128 µg/mL; IC50 ([4]; Table 1): < 0.00128 µg/mL
5 | – | – | – | CCCNC(=O)N1CCc2cc(S(=O)(=O)N3CC(c4ccccc4)NC3=O)ccc21 (stereo not drawn) [Example 30, 4-phenyl-1-(N-propylcarbamoylindoline-5-sulfonyl)-4,5-dihydro-2-imidazolone] | IC50 [1, 6]: 0.254 µg/mL (≈ 0.593 µM); IC50 ([2]; SK-OV-3, Table 3, 48 hrs): 0.261 µg/mL (≈ 0.609 µM); IC50 ([3]; Table 3, read-out: IC50 (K562)): 0.488 µg/mL (≈ 1.14 µM); IC50 ([4]; Table 3): 0.103 µg/mL (≈ 0.24 µM)
6 | – | – | – | COc1ccccc1NC(=O)N1CCc2cc(S(=O)(=O)N3CC(c4ccccc4)NC3=O)ccc21 (stereo not drawn) [Example 44, 4-phenyl-1-[N-(2-methoxyphenyl)carbamoylindoline-5-sulfonyl]-4,5-dihydro-2-imidazolone] | IC50 [1, 6]: 1.47 µg/mL (≈ 2.97 µM); IC50 ([2]; SK-OV-3, Table 3, 48 hrs): 0.273 µg/mL (≈ 0.554 µM); IC50 ([3]; Table 3, read-out: IC50 (K562)): 0.29 µg/mL (≈ 0.589 µM); IC50 ([4]; Table 3): 0.135 µg/mL (≈ 0.274 µM)
7 | 0.26 (≈ 0.581 µM) | 1.84 (≈ 4.12 µM) | 0.196 (≈ 0.438 µM) | O=C(c1ccccc1)N1CCc2cc(S(=O)(=O)N3CC(c4ccccc4)NC3=O)ccc21 (stereo not drawn) [Example 47, 4-phenyl-1-(N-benzoylindoline-5-sulfonyl)-4,5-dihydro-2-imidazolone] | –
8 | 2.22 (≈ 4.51 µM) | – | 0.101 (≈ 0.205 µM) | CCOc1ccc(C(=O)N2CCc3cc(S(=O)(=O)N4CC(c5ccccc5)NC4=O)ccc32)cc1 (stereo not drawn) [Example 52, 4-phenyl-1-[N-(4-ethoxybenzoyl)indoline-5-sulfonyl]-4,5-dihydro-2-imidazolone] | –
9 | – | – | – | CCCNC(=S)N1CCc2cc(S(=O)(=O)N3CC(c4ccccc4)NC3=O)ccc21 (stereo not drawn) [Example 40, 4-phenyl-1-(N-propylthiocarbamoylindoline-5-sulfonyl)-4,5-dihydro-2-imidazolone] | IC50 ([2]; SK-OV-3, Table 3, 48 hrs): 3.66 µg/mL (≈ 8.24 µM); IC50 ([3]; Table 3, read-out: IC50 (K562)): 0.337 µg/mL (≈ 0.758 µM); IC50 ([4]; Table 3): 0.245 µg/mL (≈ 0.551 µM)
10 | 5.97 (≈ 12.4 µM) | 0.594 (≈ 1.23 µM) | 0.774 (≈ 1.61 µM) | O=C(c1ccc(Cl)cc1)N1CCc2cc(S(=O)(=O)N3CC(c4ccccc4)NC3=O)ccc21 (stereo not drawn) [Example 53, 4-phenyl-1-[N-(4-chlorobenzoyl)indoline-5-sulfonyl]-4,5-dihydro-2-imidazolone] | –
11 | – | – | – | COc1ccc(NC(=S)N2CCc3cc(S(=O)(=O)N4CC(c5ccccc5)NC4=O)ccc32)cc1 (stereo not drawn) [Example 43, 4-phenyl-1-[N-(4-methoxyphenyl)thiocarbamoylindoline-5-sulfonyl]-4,5-dihydro-2-imidazolone] | IC50 ([2]; SK-OV-3, Table 3, 48 hrs): 1.03 µg/mL (≈ 2.03 µM); IC50 ([3]; Table 3, read-out: IC50 (K562)): 1.28 µg/mL (≈ 2.52 µM); IC50 ([4]; Table 3): 1.27 µg/mL (≈ 2.49 µM)
12 | 8.51 (≈ 18.3 µM) | 0.619 (≈ 1.33 µM) | 0.328 (≈ 0.705 µM) | O=C(c1cccc(F)c1)N1CCc2cc(S(=O)(=O)N3CC(c4ccccc4)NC3=O)ccc21 (stereo not drawn) [Example 60, 4-phenyl-1-[N-(3-fluorobenzoyl)indoline-5-sulfonyl]-4,5-dihydro-2-imidazolone] | –
13 | 0.968 (≈ 2.05 µM) | 4.96 (≈ 10.5 µM) | 1.59 (≈ 3.36 µM) | N#Cc1ccc(C(=O)N2CCc3cc(S(=O)(=O)N4CC(c5ccccc5)NC4=O)ccc32)cc1 (stereo not drawn) [Example 56, 4-phenyl-1-[N-(4-cyanobenzoyl)indoline-5-sulfonyl]-4,5-dihydro-2-imidazolone] | –
14 | > 20 | 2.4 (≈ 5.2 µM) | 1.74 (≈ 3.76 µM) | Cc1ccc(C(=O)N2CCc3cc(S(=O)(=O)N4CC(c5ccccc5)NC4=O)ccc32)cc1 (stereo not drawn) [Example 48, 4-phenyl-1-[N-(4-methylbenzoyl)indoline-5-sulfonyl]-4,5-dihydro-2-imidazolone] | –
15 | 16.5 (≈ 32 µM) | 1.88 (≈ 3.64 µM) | 2.02 (≈ 3.92 µM) | O=C(c1cc(Cl)cc(Cl)c1)N1CCc2cc(S(=O)(=O)N3CC(c4ccccc4)NC3=O)ccc21 (stereo not drawn) [Example 59, 4-phenyl-1-[N-(3,5-dichlorobenzoyl)indoline-5-sulfonyl]-4,5-dihydro-2-imidazolone] | –
16 | 12.1 (≈ 23.9 µM) | 0.218 (≈ 0.429 µM) | 1.65 (≈ 3.25 µM) | COc1ccc(C(=O)N2CCc3cc(S(=O)(=O)N4CC(c5ccccc5)NC4=O)ccc32)cc1OC (stereo not drawn) [Example 51, 4-phenyl-1-[N-(3,4-dimethoxybenzoyl)indoline-5-sulfonyl]-4,5-dihydro-2-imidazolone] | –
17 | – | – | – | C=CCNC(=O)N1CCc2cc(S(=O)(=O)N3CC(c4ccccc4)NC3=O)ccc21 (stereo not drawn) [Example 32, 4-phenyl-1-(N-allylcarbamoylindoline-5-sulfonyl)-4,5-dihydro-2-imidazolone] | IC50 [1, 6]: 7.1 µg/mL (≈ 16.6 µM); IC50 ([2]; SK-OV-3, Table 3, 48 hrs): 0.685 µg/mL (≈ 1.61 µM); IC50 ([4]; Table 3): 0.042 µg/mL (≈ 0.0985 µM)
18 | 2.96 (≈ 5.56 µM) | – | 0.695 (≈ 1.31 µM) | O=C(c1ccc(OC(F)(F)F)cc1)N1CCc2cc(S(=O)(=O)N3CC(c4ccccc4)NC3=O)ccc21 (stereo not drawn) [Example 64, 4-phenyl-1-[N-(4-trifluoromethoxybenzoyl)indoline-5-sulfonyl]-4,5-dihydro-2-imidazolone] | –
19 | 11.3 (≈ 21.4 µM) | – | 2.74 (≈ 5.15 µM) | O=C(c1cccc(OC(F)(F)F)c1)N1CCc2cc(S(=O)(=O)N3CC(c4ccccc4)NC3=O)ccc21 (stereo not drawn) [Example 63, 4-phenyl-1-[N-(3-trifluoromethoxybenzoyl)indoline-5-sulfonyl]-4,5-dihydro-2-imidazolone] | –
20 | 2.09 (≈ 4.24 µM) | 8.88 (≈ 18 µM) | 1.7 (≈ 3.45 µM) | O=C(c1ccc([N+](=O)[O-])cc1)N1CCc2cc(S(=O)(=O)N3CC(c4ccccc4)NC3=O)ccc21 (stereo not drawn) [Example 55, 4-phenyl-1-[N-(4-nitrobenzoyl)indoline-5-sulfonyl]-4,5-dihydro-2-imidazolone] | –
21 | 2.6 (≈ 5.39 µM) | 7.04 (≈ 14.6 µM) | 1.62 (≈ 3.36 µM) | O=C(c1cccc(Cl)c1)N1CCc2cc(S(=O)(=O)N3CC(c4ccccc4)NC3=O)ccc21 (stereo not drawn) [Example 58, 4-phenyl-1-[N-(3-chlorobenzoyl)indoline-5-sulfonyl]-4,5-dihydro-2-imidazolone] | –
22 | 0.591 (≈ 1.28 µM) | 5.71 (≈ 12.3 µM) | 0.638 (≈ 1.38 µM) | O=C(c1ccccc1O)N1CCc2cc(S(=O)(=O)N3CC(c4ccccc4)NC3=O)ccc21 (stereo not drawn) [Example 49, 4-phenyl-1-[N-(2-hydroxybenzoyl)indoline-5-sulfonyl]-4,5-dihydro-2-imidazolone] | –
23 | 1.52 (≈ 3.14 µM) | 5.66 (≈ 11.7 µM) | 1.94 (≈ 4.01 µM) | O=C(c1ccc(F)cc1F)N1CCc2cc(S(=O)(=O)N3CC(c4ccccc4)NC3=O)ccc21 (stereo not drawn) [Example 61, 4-phenyl-1-[N-(2,4-difluorobenzoyl)indoline-5-sulfonyl]-4,5-dihydro-2-imidazolone] | –
24 | 2.33 (≈ 5 µM) | 3.64 (≈ 7.83 µM) | 0.59 (≈ 1.27 µM) | O=C(c1ccc(F)cc1)N1CCc2cc(S(=O)(=O)N3CC(c4ccccc4)NC3=O)ccc21 (stereo not drawn) [Example 54, 4-phenyl-1-[N-(4-fluorobenzoyl)indoline-5-sulfonyl]-4,5-dihydro-2-imidazolone] | –
25 | 1.37 (≈ 2.87 µM) | 2.19 (≈ 4.58 µM) | 1.56 (≈ 3.28 µM) | COc1ccc(C(=O)N2CCc3cc(S(=O)(=O)N4CC(c5ccccc5)NC4=O)ccc32)cc1 (stereo not drawn) [Example 50, 4-phenyl-1-[N-(4-methoxybenzoyl)indoline-5-sulfonyl]-4,5-dihydro-2-imidazolone] | –
